Some test systems named below: OVCAR-5 ovarian; M14 melanoma; NCI-H226 lung; SF-539 CNS; SK-OV-3 ovarian; A498 renal; HS 578T breast; SNB-19 CNS; RXF 393 renal.
What all share (test): inhibition of tumour cell growth, NCI panel, 48 h

The structures appear in SMILES notation.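 Dose response: 5 concentrations. Exposure: 48 h. Format: 96-well plates. Endpoint: linear interpolation; highest concentration if not reached. GI50 marks 50% less growth. The concentration for full growth arrest is given as TGI.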

As for `CCSc1ccc(C2C(Br)C(=O)N2c2cc(OC)c(OC)c(OC)c2)cc1` (configuration not stated), the GI50 is 0.431 µM in the assay with OVCAR-5 ovarian; 0.128 µM in the assay on M14 melanoma; 3.11 µM in the assay on NCI-H226 lung; 0.161 µM in the assay with SF-539 CNS; 0.392 µM in the assay with SK-OV-3 ovarian; 0.103 µM in the assay with A498 renal. Moreover, the GI50 with HS 578T breast is 0.229 µM; with SNB-19 CNS it was 0.44 µM. The TGI was 15.8 µM in the assay with OVCAR-5 ovarian; 2.12 µM in the assay with M14 melanoma; 43.5 µM with NCI-H226 lung; 0.61 µM with SF-539 CNS; greater than 100 µM with SK-OV-3 ovarian; 0.74 µM in the assay on A498 renal. For the same compound, the TGI in the assay with HS 578T breast and in the assay with SNB-19 CNS was greater than 100 µM each time.

Consider `CCC[CH2][Sn]1([CH2]CCC)[O]CC(C)[O]1` (configuration not stated), for which the GI50 in the assay with OVCAR-5 ovarian was 2.03 µM; in the assay with M14 melanoma, 1.87 µM; with NCI-H226 lung, 2.11 µM; in the assay with SF-539 CNS, 1.46 µM; in the assay with SK-OV-3 ovarian, 3.56 µM; in the assay on A498 renal, 2.6 µM. Besides, the values for the GI50 in the assay with RXF 393 renal and with SNB-19 CNS were 1.46 µM and 1.32 µM, respectively. Also, the TGI worked out at 7.45 µM in the assay with OVCAR-5 ovarian; 4.87 µM in the assay on M14 melanoma; 4.62 µM in the assay on NCI-H226 lung; 3.46 µM with SF-539 CNS; 10.4 µM in the assay on SK-OV-3 ovarian; 4.68 µM with A498 renal. In addition, the TGI with RXF 393 renal stood at 2.99 µM; with SNB-19 CNS, 2.64 µM.

As to `CC(=O)[O-].O=C([CH-]C(=O)c1ccccc1)c1ccccc1.O=C([CH-]C(=O)c1ccccc1)c1ccccc1.[Sm+3]`, the GI50 is 21.4 µM in the assay with OVCAR-5 ovarian; 4.55 µM with M14 melanoma; 1.52 µM with NCI-H226 lung; 14.6 µM with SF-539 CNS; 6.18 µM in the assay on SK-OV-3 ovarian; 13.1 µM with A498 renal. In the assay on SNB-19 CNS, the GI50 was 6.44 µM. Moreover, the TGI in the assay on OVCAR-5 ovarian amounted to 63.1 µM; in the assay with M14 melanoma, 17.5 µM; in the assay with NCI-H226 lung, 9.69 µM; with SF-539 CNS it was 45.2 µM; in the assay with SK-OV-3 ovarian, 37.4 µM; in the assay with A498 renal it was 37.2 µM. Moreover, in the assay with SNB-19 CNS, the TGI is 65.7 µM.

Regarding `C[C@]12CCC(=O)C=C1CC[C@@H]1C2CC[C@]2(C)c3nn(-c4ccccc4)nc3CC12` (some centres not stated), the TGI in the assay on OVCAR-5 ovarian, with M14 melanoma, with NCI-H226 lung, with SF-539 CNS, in the assay on SK-OV-3 ovarian and with A498 renal was greater than 100 µM throughout. Moreover, the TGI in the assay on RXF 393 renal and in the assay on SNB-19 CNS was greater than 100 µM in each case.

For the compound `CC(=O)[CH-]C(C)=O.CC(=O)[CH-]C(C)=O.CC[O-].CC[O-].[Ti+4]`, the GI50 with OVCAR-5 ovarian, in the assay with M14 melanoma, with NCI-H226 lung, in the assay on SF-539 CNS, in the assay with SK-OV-3 ovarian and with RXF 393 renal was greater than 100 µM each time. The GI50 in the assay with SNB-19 CNS was greater than 100 µM. In addition, the TGI in the assay with OVCAR-5 ovarian, in the assay with M14 melanoma, in the assay with NCI-H226 lung, with SF-539 CNS, in the assay with SK-OV-3 ovarian and in the assay on RXF 393 renal was greater than 100 µM in each case. In the assay with SNB-19 CNS, this compound gave a TGI greater than 100 µM.

As for `CCc1cccc(C)c1NC(=O)CC1C(=O)Nc2ccccc2S1(=O)=O` (configuration not stated), the TGI is 56.4 µM with OVCAR-5 ovarian; 72.1 µM with M14 melanoma; greater than 100 µM in the assay on NCI-H226 lung; 24.6 µM in the assay on SF-539 CNS; 58.3 µM in the assay with A498 renal; 40.4 µM in the assay on RXF 393 renal. For the same compound, the TGI in the assay on SNB-19 CNS was 75.5 µM.

In the case of `CC(=O)N/C(=C\c1ccc(Cc2nc3c([nH]2)C(=O)c2ccccc2C3=O)cc1)c1nc2c([nH]1)C(=O)c1ccccc1C2=O`, the TGI in the assay with OVCAR-5 ovarian, in the assay with M14 melanoma, in the assay with NCI-H226 lung, with SF-539 CNS, in the assay on SK-OV-3 ovarian and in the assay with A498 renal was greater than 100 µM each time. In addition, the TGI in the assay on RXF 393 renal and with SNB-19 CNS was greater than 100 µM each time.

For `O=C(/C=C\c1cccc2ccccc12)c1cccc2ccccc12`, the TGI is 26 µM with M14 melanoma; 25 µM with NCI-H226 lung; 28 µM in the assay on SF-539 CNS; 31.7 µM in the assay on A498 renal; 20.1 µM in the assay on RXF 393 renal; 23.7 µM in the assay on SNB-19 CNS. For the same compound, the values for the GI50 in the assay with NCI-H226 lung and with RXF 393 renal were 12.2 µM and 7.46 µM, respectively.

For the compound `CCN(CC)CC(=N)N(CC)c1ccccc1`, the TGI with OVCAR-5 ovarian, in the assay with M14 melanoma, in the assay with NCI-H226 lung, in the assay with SF-539 CNS, in the assay on SK-OV-3 ovarian and in the assay with A498 renal was greater than 100 µM throughout. In addition, the TGI in the assay with RXF 393 renal and in the assay with SNB-19 CNS was greater than 100 µM in each case.

For the compound `Cn1cccc1/C=C/c1cc(Br)c(/C=C/c2cccn2C)cc1Br`, the TGI is greater than 100 µM with OVCAR-5 ovarian; 57.9 µM with M14 melanoma; 39.5 µM with NCI-H226 lung; 31.5 µM with SF-539 CNS; 30.3 µM in the assay on SK-OV-3 ovarian; 45.1 µM with A498 renal. Moreover, the TGI in the assay with RXF 393 renal was determined as 25.1 µM; with SNB-19 CNS, 92.8 µM.

Consider `O=C(CC/C(CC(=O)c1ccc(Br)cc1)=N\O)Nc1ccc(Cl)c(Cl)c1`, for which the TGI in the assay with OVCAR-5 ovarian, with M14 melanoma, in the assay with NCI-H226 lung, with SF-539 CNS, with SK-OV-3 ovarian and with A498 renal was greater than 100 µM throughout. The same compound showed a TGI in the assay on RXF 393 renal of 90.7 µM.

Consider `CCN(CC)CCNC(=O)c1cccc2nc3ccccc3nc12`, for which the TGI with OVCAR-5 ovarian was 41.6 µM; in the assay with M14 melanoma, greater than 48.7 µM; in the assay on NCI-H226 lung it was 34.2 µM; with SF-539 CNS, 28.8 µM; with SK-OV-3 ovarian, greater than 100 µM; in the assay on A498 renal, 30.9 µM. Also, the values for the TGI in the assay on RXF 393 renal and in the assay on SNB-19 CNS were 28.2 µM and greater than 100 µM, respectively.

For the compound `CN(C)CC/C(=N\Nc1ccc(Cl)cc1Cl)c1ccccc1`, the TGI in the assay on OVCAR-5 ovarian turned out to be 30.7 µM; in the assay with M14 melanoma, 29.1 µM; in the assay with SF-539 CNS it was 35 µM; with SK-OV-3 ovarian, 24.8 µM; in the assay on A498 renal it was 30.1 µM; with RXF 393 renal, 20.6 µM. Further, the TGI in the assay on SNB-19 CNS stood at 30 µM.

As to `CC(=O)[CH-]C(=O)c1ccccc1.CC(=O)[CH-]C(=O)c1ccccc1.CC[O-].O=C1c2ccccc2C(=O)c2c1ccc(O)c2[O-].[Ti+4]`, the TGI in the assay with OVCAR-5 ovarian is greater than 100 µM; in the assay with M14 melanoma, greater than 100 µM; with NCI-H226 lung, greater than 100 µM; with SF-539 CNS it was greater than 100 µM; in the assay on SK-OV-3 ovarian, greater than 100 µM; in the assay on A498 renal it was 83.5 µM. The compound also registered a TGI in the assay with SNB-19 CNS greater than 100 µM. In addition, in the assay on SK-OV-3 ovarian, the GI50 is 52.5 µM.

For the origin of these results see PubChem BioAssay (NCI).
